These results are taken from ChEMBL document CHEMBL1123376, “3-(1H-tetrazol-5-yl)-4(3H)-quinazolinone sodium salt (MDL 427): a new antiallergic agent” (1986).

Format in all cases: functional
In experiment [1] the test system is Rattus norvegicus. The experiment in a line: Compound was evaluated in rat PCA(passive cutaneous anaphylaxis) test administered intravenously. The following applies: iv.
The subject of experiment [2] is Rattus norvegicus. The experiment in a line: Evaluated in rat PCA (passive cutaneous anaphylaxis) test administered at 60 mg/kg ip and the inhibition of PCA due to inhibition of IgE mediated release was determined. The conditions noted are these: route intraperitoneal; for inhibition in vivo at 60 mg/kg: Rattus norvegicus, ip.
The subject of experiment [3] is Rattus norvegicus. Nature of the experiment: Compound was evaluated in rat PCA (passive cutaneous anaphylaxis) test administered at 100 mg/kg orally and the inhibition of PCA due to inhibition of IgE mediated release was determined. The conditions noted are these: for inhibition in vivo at 100 mg/kg: Rattus norvegicus, po.
For experiment [4], the system named is Rattus norvegicus. Nature of the experiment: Compound was evaluated in rat PCA (passive cutaneous anaphylaxis) test administered intravenously. The conditions noted are these: iv.

In the case of `O.O=c1c2ccccc2ncn1-c1nnn[n-]1.[Na+]`, it took a dose of 0.2 mg/kg to reach the 50% effect level in experiment [1] (ED50). Besides, the Inhibition (commonly the change of the read-out against control, counted positive when it falls) worked out at 93% in experiment [2] and 97% in experiment [3] (route oral).
Take `Cc1cccc2ncn(-c3nn[nH]n3)c(=O)c12`: at 60 mg/kg the inhibition in vivo in experiment [2] was 80%.
On to `Nc1ccccc1C(=O)Nc1nn[nH]n1`, for which the inhibition in vivo (in general, how much of the control response was suppressed) at 60 mg/kg in experiment [2] was found to be 59%. Further, the ED50 – broadly, the midpoint of the dose-response relation – in experiment [4] is 10.5 mg/kg. Further, the inhibition in vivo at 100 mg/kg in experiment [3] amounted to 7%.
On to `O=c1c2ccccc2ncn1-n1cnnc1`, for which the inhibition in vivo at 60 mg/kg in experiment [2] turned out to be 0%.
As to `O=CNc1ccccc1C(=O)Nc1nn[nH]n1`, the inhibition in vivo at 60 mg/kg in experiment [2] turned out to be 89%. The inhibition in vivo at 100 mg/kg in experiment [3] was 91%.
The compound `O=c1c2cc(Cl)ccc2ncn1-c1nn[nH]n1` displayed an inhibition in vivo at 60 mg/kg in experiment [2] of 89%.
Same read-out and setting: as for `CCc1nc2ccccc2c(=O)n1-c1nn[nH]n1`, the figure is 41%.
Still for that read-out and setting: as for `O=c1c2ccccc2ncn1-c1cc[nH]n1`, the figure is 5%; as for `Cc1ccc2ncn(-c3nn[nH]n3)c(=O)c2c1`, 100%; as for `Cc1cccc2c(=O)n(-c3nn[nH]n3)cnc12`, 64%.
Same read-out and setting: the figure for `O=c1c2ccccc2nc(-c2ccccc2)n1-c1nn[nH]n1` is 27%; for `O=c1c2ccccc2ncn1-c1nc[nH]n1` it is 75%.
The compound `O=C([O-])c1cc(=O)c2c(OCC(O)COc3cccc4oc(C(=O)[O-])cc(=O)c34)cccc2o1.[Na+].[Na+]` [CROMOLYN SODIUM] came in with an inhibition in vivo at 60 mg/kg in experiment [2] of 100%. For the same compound, the ED50 in experiment [4] was 0.7 mg/kg. At 100 mg/kg the inhibition in vivo in experiment [3] was 0%.
For `COc1cccc2c(=O)n(-c3nn[nH]n3)cnc12`, at 60 mg/kg the inhibition in vivo in experiment [2] was 44%.
In turn, `O=c1c2ccccc2ncn1-c1nnn[nH]1` displayed an inhibition in vivo at 60 mg/kg in experiment [2] of 100%. Also, the inhibition in vivo at 100 mg/kg in experiment [3] turned out to be 89%.
In turn, `Cc1nc2ccccc2c(=O)n1-c1nn[nH]n1` displayed an inhibition in vivo at 60 mg/kg in experiment [2] of 22%.
Compound `O=c1c2cc3c(cc2ncn1-c1nn[nH]n1)OCO3` yielded an inhibition in vivo at 60 mg/kg in experiment [2] of 90%.
